In PubChem BioAssay AID1204 (EPA DSSTox, 2008):
Records with an inconclusive call do not appear. Calls of active or inactive are those of the source.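 Rule for the calls: active = relative estrogen receptor binding affinity above 1E-5, where estradiol scores 100; inconclusive = weak binder, under half inhibition at top dose, or affinity below 1E-5; inactive = no binding seen, affinity zero.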

test system: estrogen receptor (rat uterine cytosol); test: DSSTox (NCTRER) National Center for Toxicological Research Estrogen Receptor Binding Database; conditions: rat uterine cytosol ER competitive binding, RBA; ChemClass_ERB: Misc;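 for relative binding affinity: ratio of estradiol IC50 over compound IC50 times 100 so estradiol equals 100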
Source text: Researchers within FDA's National Center for Toxicological Research (NCTR) generated a database of experimental estrogen receptor binding results for the express purpose of developing improved QSAR models to predict ER binding affinities.The NCTR ER database is a structurally diverse set of natural, synthetic, and environmental estrogens covering most known estrogenic classes and spanning a wide range of biological activity. It represents the largest published ER binding database of same-assay results generated in a single laboratory. […] Information on the percent purity and purchasing source for all chemicals are not included in the DSSTox SDF, but can be obtained from the original NCTR ER Source database and Main Citations listed below. The main citation (Fang et al., 2001) surveys the NCTR ER database from a chemical class based, structure-activity relationship (SAR) perspective. Qualitative SAR characteristics of the NCTR ER database are discussed and a set of general hierarchical rules for identifying potential estrogens are presented. The DSSTox NCTRER SDF augments the original NCTR ER database with chemical class and SAR information abstracted from Fang et al. (2001). The DSSTox SDF file supplements the measured ER relative binding affinity for each chemical (ER_RBA) with chemical class assignment to one of 6 major estrogenic classes further divided into 20 subclasses (ChemClass_ERB), along with a qualitative activity measure, ActivityCategory_ER_RBA. A brief narrative SAR rationale pertaining to ER RBA patterns observed by Fang et al. (2001) for each of the 20 subclasses within the database are provided in the field, ActivityCategory_Rationale_ChemClass_ERB. The original NCTR ER database, from which the expanded DSSTox NCTRER was formed, is contained within a larger Endocrine Disruptor Knowledge Base (EDKB) accessible from the FDA Source Website. That website provides online access to a relational database comprised of in vitro and in vivo experimental data for about 2000 natural and synthetic compounds, much of this extracted from the literature and representing testing in many laboratories. Data are included for biological assays that measure estrogenic and androgenic activity. Estrogenic endpoints include in vitro assays for estrogen receptor competitive binding affinity, cell proliferation, and reporter-gene assays, and in vivo assays for uterotrophic activity (i.e., uterine weight gain and vaginal cornification). The database also contains a bibliography of over 1200 citations, many of which include abstracts.
Estrogen receptor relative binding affinity is determined using a competitive receptor binding assay as described in NCTRER Ref (Blair et al., 2000). Briefly, a chemical competes with radiolabeled E2 (i.e., estradiol) for binding to the ER in rat uterine cytosol and the concentration of chemical that causes 50% inhibition of E2 binding (i.e., IC50) is measured. The ER_RBA is calculated by dividing the IC50 of E2 (9X10-10M) by the IC50 of the competitor and multiplying by 100 (E2 RBA = 100). The validated assay tested 1nM E2 with concentrations of competitor ranging from 1nM to 1mM. The larger the ER_RBA values, the greater the binding affinity; ER_RBA > 100 means compound has greater binding affinity than natural ER ligand, E2. […] Activity Score is mapping of LOG_ER_RBA values (ER-RBA>1E-5), spanning activity range [MIN, MAX] onto Integer 20-100 Activity range, where 100 is highest potency and 20 is lowest active potency. If Activity Outcome is "active": Activity Score = 80 * INTEGER[(LOG_ER_RBA - MIN)/(MAX […] MIN)]. If Activity Outcome is "inconclusive" (i.e., slight binder): Activity Score = 5.

Row | SMILES | outcome
1 | O=C(O)COc1ccc(Cl)cc1Cl | inactive
2 | O=C(O)CCCCCCC(=O)O | inactive
3 | c1ccc2c(c1)Cc1cc3ccccc3cc1-2 | inactive
4 | Nc1nc2ncc(CNc3ccc(C(=O)N[C@@H](CCC(=O)O)C(=O)O)cc3)nc2c(=O)[nH]1 | inactive
5 | ClC1=C(Cl)[C@@]2(Cl)[C@@H]3[C@@H](Cl)[C@H](Cl)C[C@@H]3C1(Cl)C2(Cl)Cl | inactive

same assay, conditions: rat uterine cytosol ER competitive binding, RBA; ChemClass_ERB: Misc; active compounds read high

Row | SMILES | relative binding affinity
6 | C[Si](C)(O[Si](C)(C)c1ccccc1)c1ccccc1 | 0.00069%
7 | CC[C@@H]1c2ccc3cc(OC)ccc3c2CC[C@]1(C)C(=O)O | 0.00181%

same assay, conditions: rat uterine cytosol ER competitive binding, RBA; ChemClass_ERB: Phenols Alkyloxy

Row | SMILES | outcome
8 | C=CCc1ccc(O)c(OC)c1 | inactive
9 | C/C=C/c1ccc(O)c(OC)c1 | inactive

same assay, conditions: rat uterine cytosol ER competitive binding, RBA; ChemClass_ERB: Phenols Parabens; active compounds read high

Row | SMILES | relative binding affinity
10 | CCCOC(=O)c1ccc(O)cc1 | 0.0006%
11 | CCOC(=O)c1ccc(O)cc1 | 0.0006%
12 | CCCCCCCOC(=O)c1ccc(O)cc1 | 0.00812%

same assay, conditions: rat uterine cytosol ER competitive binding, RBA; ChemClass_ERB: Phytoestrogens Chalconoids; active compounds read high

Row | SMILES | relative binding affinity
13 | O=C(/C=C/c1ccccc1)c1ccc(O)cc1 | 0.0037%

same assay, conditions: rat uterine cytosol ER competitive binding, RBA; ChemClass_ERB: Phytoestrogens Coumestans; active compounds read high

Row | SMILES | relative binding affinity
14 | CCc1c(-c2ccc(OC)cc2)c(=O)oc2cc(O)ccc12 | 0.891%

same assay, conditions: rat uterine cytosol ER competitive binding, RBA; ChemClass_ERB: Phytoestrogens Flavanones

Row | SMILES | outcome
15 | O=C1CC(c2ccccc2)Oc2ccccc21 (stereo unspecified) | inactive

same assay, conditions: rat uterine cytosol ER competitive binding, RBA; ChemClass_ERB: Phytoestrogens Flavones

Row | SMILES | outcome
16 | O=c1cc(-c2ccccc2)oc2ccccc12 | inactive
17 | O=c1cc(-c2ccccc2)oc2cc(O)ccc12 | inactive
18 | O=c1c(O)c(-c2ccc(O)c(O)c2)oc2cc(O)cc(O)c12 | inactive

same assay, conditions: rat uterine cytosol ER competitive binding, RBA; ChemClass_ERB: Phytoestrogens Flavones; active compounds read high

Row | SMILES | relative binding affinity
19 | O=c1c(O)c(-c2cc(O)c(O)c(O)c2)oc2cc(O)cc(O)c12 | 0.00177%
20 | O=c1cc(-c2ccccc2)oc2ccc(O)cc12 | 0.00038%
21 | O=c1c(O)c(-c2ccc(O)c(O)c2)oc2cc(O)ccc12 | 0.00446%
22 | O=c1c(O)c(-c2ccc(O)cc2)oc2ccc(O)cc12 | 0.447%

same assay, conditions: rat uterine cytosol ER competitive binding, RBA; ChemClass_ERB: Phytoestrogens Isoflavones; active compounds read high

Row | SMILES | relative binding affinity
23 | O=c1c(-c2ccc(O)c(O)c2)coc2cc(O)ccc12 | 0.00446%
24 | Oc1ccc([C@H]2COc3cc(O)ccc3C2)cc1 | 0.151%
25 | COc1cc(O)c2c(=O)c(-c3ccc(O)cc3)coc2c1 | 0.00181%

same assay, conditions: rat uterine cytosol ER competitive binding, RBA; ChemClass_ERB: Phytoestrogens Mycoestrogens; active compounds read high

Row | SMILES | relative binding affinity
26 | C[C@@H]1CCC[C@H](O)CCC/C=C/c2cc(O)cc(O)c2C(=O)O1 | 0.204%

same assay, conditions: rat uterine cytosol ER competitive binding, RBA; ChemClass_ERB: Steroids With aromatic A ring; active compounds read high

Row | SMILES | relative binding affinity
27 | C[C@]12CC[C@@H]3c4ccc(O)cc4C[C@@H](CCCCCCCCCS(=O)CCCC(F)(F)C(F)(F)F)[C@H]3[C@@H]1CC[C@@H]2O (stereo partly specified) | 37.1%
28 | C[C@]12CC[C@@H]3c4ccc(O)cc4CC[C@H]3[C@@H]1CC[C@H]2O | 3.09%
29 | COc1ccc2c(c1)CC[C@@H]1[C@@H]2CC[C@]2(C)[C@@H](O)[C@H](O)C[C@@H]12 | 0.0224%
30 | C[C@@]12CCC[C@H]1[C@@H]1CCc3cc(O)ccc3[C@H]1CC2 | 13.8%
31 | C[C@]12CC[C@@H]3c4ccccc4CC[C@H]3[C@@H]1CCC2=O | 0.0063%
32 | CCCCN(C)C(=O)CCCCCCCCCC[C@@H]1Cc2cc(O)ccc2[C@H]2CC[C@]3(C)[C@@H](O)CC[C@H]3[C@H]12 | 14.4%

same assay, conditions: rat uterine cytosol ER competitive binding, RBA; ChemClass_ERB: Steroids Without aromatic A ring

Row | SMILES | outcome
33 | C[C@]12CC[C@H]3[C@@H](CCC4=CC(=O)CC[C@@]43C)[C@@H]1CC[C@H]2O | inactive
34 | CC[C@H](CC[C@@H](C)[C@H]1CC[C@H]2[C@@H]3CC=C4C[C@@H](O)CC[C@]4(C)[C@H]3CC[C@]12C)C(C)C | inactive
35 | C[C@@H]1C[C@H]2[C@@H]3CCC4=CC(=O)C=C[C@]4(C)[C@@]3(F)[C@@H](O)C[C@]2(C)[C@@]1(O)C(=O)CO | inactive

same assay, conditions: rat uterine cytosol ER competitive binding, RBA; ChemClass_ERB: Steroids Without aromatic A ring; active compounds read high

Row | SMILES | relative binding affinity
36 | C[C@]12CC[C@@H](O)C[C@@H]1CC[C@@H]1[C@@H]2CC[C@]2(C)[C@@H](O)CC[C@@H]12 | 0.0021%
